What was measured:
Trypanosoma cruzi [1] = experiment: 50% inhibitory concentration against the growth of Trypanosoma cruzi (Epimastigotes); type: functional, organism-based
Trypanosoma cruzi [2] = experiment: 50% inhibitory concentration against the growth of intracellular Trypanosoma cruzi; type: functional, organism-based
Trypanosoma cruzi [3] = experiment: 90% inhibitory concentration against the growth of Trypanosoma cruzi (Epimastigotes); type: functional

Row | Structure (SMILES) | IC50 (Trypanosoma cruzi [1]) | IC50 (Trypanosoma cruzi [2]) | IC90 (Trypanosoma cruzi [3])
1 | C[C@H](COc1ccc(Oc2ccccc2)cc1)SC#N | > 82 µM | – | –
2 | C[C@@H](COc1ccc(Oc2ccccc2)cc1)SC#N | 25 µM | – | –
3 | N#CSCc1ccc(Oc2ccccc2)cc1 | 18.7 µM | – | –
4 | N#CSCCOc1ccc(Oc2ccccc2)cc1 | – | 16 µM | 3.5 µM
5 | Clc1ccc(OCCOC2CCCCO2)cc1 (stereo not drawn) | > 390 µM | – | –
6 | N#CSCCOc1ccc(Oc2ccccc2)cc1I | 1.8 µM | > 100 µM | 23 µM
7 | CC(=O)N(CCO)c1ccc(Oc2ccccc2)cc1 | 277 µM | – | –
8 | N#CSCCOc1ccc2oc3ccccc3c(=O)c2c1 | 54 µM | – | –
9 | CC(=O)N(CCSC#N)c1ccc(Oc2ccccc2)cc1 | 14.4 µM | – | –
10 | N#CSCCOc1ccc(Oc2ccccc2)cc1Cl | 24.5 µM | – | –
11 | Cc1ccccc1Oc1ccc(OCCSC#N)cc1 | 2.7 µM | 41.7 µM | 3.5 µM
12 | N#CSCCOc1ccc(Oc2cccc(Br)c2)cc1 | 2.9 µM | – | –
13 | N#CSCCSc1ccc(Oc2ccccc2)cc1 | 0.87 µM | – | 32 µM

Second part, the molecule after the results:

Row | IC50 (Trypanosoma cruzi [1]) | IC50 (Trypanosoma cruzi [2]) | IC90 (Trypanosoma cruzi [3]) | Structure (SMILES)
14 | 291 µM | – | – | c1ccc(Oc2ccc(SCCOC3CCCCO3)cc2)cc1 (stereo not drawn)
15 | 45 µM | – | – | Ic1cc(Oc2ccccc2)ccc1OCCOC1CCCCO1 (stereo not drawn)
16 | 141 µM | – | – | N#CSCCNc1ccc(Oc2ccccc2)cc1
17 | 211 µM | – | – | CC(=O)N(CCOC1CCCCO1)c1ccc(Oc2ccccc2)cc1 (stereo not drawn)
18 | 14.1 µM | – | – | N#CSCCOc1ccc(Cl)cc1
19 | < 4 µM | – | 27 µM | N#CSCCOc1cccc(Br)c1
20 | 102 µM | – | – | c1ccc(Oc2ccc(COC3CCCCO3)cc2)cc1 (stereo not drawn)
21 | 143 µM | – | – | Cc1ccccc1Oc1ccc(OCCOC2CCCCO2)cc1 (stereo not drawn)
22 | 1.4 µM | 64.5 µM | 18 µM | N#CSCCOc1ccc(Oc2ccccc2)cc1Br
23 | 1 µM | > 100 µM | 30 µM | N#CSCCOc1ccc(Cl)cc1Cl
24 | > 60 µM | – | – | O=c1c2ccccc2oc2ccc(OCCOC3CCCCO3)cc12 (stereo not drawn)
25 | 138 µM | – | – | Brc1cccc(Oc2ccc(OCCOC3CCCCO3)cc2)c1 (stereo not drawn)
26 | > 60 µM | – | – | Cc1cccc(C)c1Oc1ccc(OCCOC2CCCCO2)cc1 (stereo not drawn)
27 | 104 µM | – | – | Brc1cccc(OCCOC2CCCCO2)c1 (stereo not drawn)

Reference: ChEMBL document CHEMBL1132935, “Design and synthesis of aryloxyethyl thiocyanate derivatives as potent inhibitors of Trypanosoma cruzi proliferation” (J Med Chem, 2000)
